Measured values from patent US10933032B2, “Methods for the treatment of cancer using coenzyme Q10 combination therapies” (Berg LLC, priority 2013, dated 2021).

Legend:
[1] = system: acute lymphoblastic leukemias; conditions: in combination with 60 mg/m^2 of prednisone, given daily; usually within 4 to 6 weeks; cited from earlier work
[2] = system: Mycosis fungoides (cutaneous T Cell lymphoma); conditions: methotrexate as a single agent; cited from earlier work
[3] = system: MIAPaCa-2 human pancreatic tumor cells; test: Xenogeneic mouse human pancreatic cancer model, survival; format: in vivo, NOD scid gamma (NSG) mice; conditions: Example 1, Regimen 1, single agent: IV 4% Coenzyme Q10 50 mg/kg/day, or IV gemcitabine 150 mg/kg/week for 3 weeks with one week rest; FIG. 1
[4] = system: MIAPaCa-2 human pancreatic tumor cells; test: Xenogeneic mouse human pancreatic cancer model, tumors harvested at mortality (size, weight, vasculature, palpation); format: in vivo, NOD scid gamma (NSG) mice; conditions: Example 1, single agents: Group 2 Coenzyme Q10 IV 50 mg/kg/day; Group 3 gemcitabine 150 mg/kg/week; FIG. 2

| Structure (SMILES) | Remissions, patients treated [1] | Clinical responses, patients treated [2] | Survival (prolongation of life) compared to untreated control [3] | Growth of pancreatic tumors (tumor size at time of death) vs control [4] |
| --- | --- | --- | --- | --- |
| CN(Cc1cnc2nc(N)nc(N)c2n1)c1ccc(C(=O)N[C@@H](CCC(=O)O)C(=O)O)cc1 [Methotrexate] | prednisone, given daily, produced remissions in 50% of patients treated, | 50% of patients treated. Dosage in early stages is usually 5 to 50 mg once | – | – |
| Nc1ccn([C@@H]2O[C@H](CO)[C@@H](O)C2(F)F)c(=O)n1 [gemcitabine, reference compound] | – | – | prolongation of life as compared to untreated control | inhibited the growth of pancreatic tumors |
